We go through four molecules from patent US10568324B2, “Agricultural and horticultural material, and plant cultivation method which promote coloring in fruit” (AJINOMOTO CO., INC., priority 2015, dated 2020).

The conditions of data set [1]: cited from earlier work.
In data set [2] the test system is grape cultured cells (VR calluses). Briefly: Anthocyanin content in grape calluses treated with various amino acids (Reference Example 1(1)). The class given is cell-based, Vitis vinifera L. Conditions: 5 days. Here is the method:
Cells derived from a European grape cell line (Vitis vinifera L.; RIKEN BioResource Center; VR, management number RPC00003) were subcultured on MS agar medium. The subcultured VR calluses (i.e. cell clusters) were each transferred to MS agar medium containing 5 mM of each amino acid solution, and cultured. As a positive control, 100 μM abscisic acid (ABA) was added, which is a known color-promotor. Five days after the transfer, each callus was freeze-dried and ground, and anthocyanin was extracted with a 1% HCl solution in MeOH.

Data set [3] relates to Cabernet Sauvignon grape plants. Put plainly: Effect of isoleucine on coloring of grape berries, sprinkled on bunches in test farm (Reference Example 1(2)). Type of data set: in vivo. Conditions: 10 mM Ile + 0.1% Applauch BI sprinkled on bunches in veraison period; FIG. 1. The method, then:
Cabernet Sauvignon grape plants that had been cultivated in a test farm and had entered into the veraison period were chosen for this experiment. Eight bunches of grapes on each of two grape plants, 16 bunches of grapes in total, were selected for each test group. On each bunch of grapes, about 6.25 mL of 0.1% Applauch BI (Kao, control), 1 g/L of abscisic acid (ABA)+0.1% Applauch BI (positive control), or 10 mM isoleucine (Ile)+0.1% Applauch BI was sprinkled. As samples, 4 bunches for each test group were collected 4 times. Anthocyanin present in the pericarps was extracted with a mixed solution of water and acetone (1:2), and the anthocyanin content was measured in the same manner as described above.

In brackets after ≈: the same amount, converted by molar mass. Read-outs that look alike come from different tables or passages of the source.

With `N[C@@H](Cc1ccccc1)C(=O)O` [Phe, phenylalanine], the solubility in water in data set [1] (20° C.) was 27 mg/mL (≈ 163 mM); in data set [1] (50° C.), 40 mg/mL (≈ 242 mM); in data set [1], “about 0.2 M”.
In the case of `CC(C)C[C@H](N)C(=O)O` [Leu, leucine], the solubility in water is 24 mg/mL (≈ 183 mM) in data set [1] (20° C.), 29 mg/mL (≈ 221 mM) in data set [1] (50° C.) and “about 0.2 M” in data set [1].
Regarding `C[C@H](N)C(=O)O` [Ala], the “Relative content of anthocyanin” value in data set [2] (5 mM amino acid in MS agar medium, relative to positive control 100 μM ABA taken as 100%) turned out to be 7%.
As to `CC[C@H](C)[C@H](N)C(=O)O` [Ile, isoleucine], the solubility in water entry in data set [1] is given as “about 0.3 M”. In addition, in data set [3], the “anthocyanin content in pericarps” value is “increased”. In addition, in data set [2] (5 mM amino acid, compared among the amino acids of Table 1), the “anthocyanin content of callus (in words)” value was “highest anthocyanin content”.
